The text below walks through data of US9163240B2, “SR-BI mutation as a predictor of low progesterone levels and poor fetal viability during pregnancy” (The Johns Hopkins University, priority 2009, dated 2015).

The subject of one assay is HGL5 cells. Put plainly: Progesterone secretion in HGL5 granulosa cells (RIA). Type of assay: cell-based, human. Conditions: for rescue of impaired progesterone secretion in SR-BI KD cells: SR-BI KD cells incubated with the agent.
A further assay deals with female knockout mice. Conditions: probucol added in the chow diet; cited from earlier work.

On to `CC(C)CCC(O)[C@@H](C)[C@H]1CC[C@H]2[C@@H]3CC=C4C[C@@H](O)CC[C@]4(C)[C@H]3CC[C@]12C` (stereo partly shown) [22-OH cholesterol, 22-hydroxycholesterol], for which the “rescue of impaired progesterone secretion in SR-BI KD cells” value in the assay with HGL5 cells is recorded as “did not overcome this impairment”.
On to `C=C[C@@]1(C)CC(=O)[C@]2(O)[C@@]3(C)[C@@H](O)CCC(C)(C)[C@@H]3[C@H](O)[C@H](OC(C)=O)[C@@]2(C)O1` [Fo, Forskolin], for which the “progesterone secretion higher as compared with DMSO” value in the assay with HGL5 cells (scrambled cells, 24 h, Fo 10 μM, serum 10%, HDL or LDL 50 μg protein/ml, p<0.001) is more than 2 fold.
For `CCCC(=O)Nc1ncnc2c1ncn2[C@@H]1O[C@@H]2COP(=O)(O)O[C@H]2[C@H]1OC(=O)CCC` [dibutryl cAMP], the “rescue of impaired progesterone secretion in SR-BI KD cells” value in the assay with HGL5 cells is listed as “did not overcome the defect”.
For the compound `CC(C)(Sc1cc(C(C)(C)C)c(O)c(C(C)(C)C)c1)Sc1cc(C(C)(C)C)c(O)c(C(C)(C)C)c1` [probucol], the “fertility of SR-BI knockout female mice” value in the assay with female knockout mice is “restored”.
